Assay results: US20040132619A1, “Selective substituted aryl ketone and safener based herbicides” (priority 2001, published 2004)

How the values were obtained:
[1] = logP (physical data, Table 1); assay type: physicochemical; conditions: footnote a) not given
wheat cv. “Orestis” = test: Post-emergence test/greenhouse, damage to wheat; assay type: in vivo
Protocol: (§1) The active compound or safener components are in each case dissolved in a little solvent and then—if appropriate after addition of an emulsifier—diluted with water to the desired concentration. […] Acetone and N,N-dimethylformamide are used as preferred solvents. The test plants are grown under controlled conditions (temperature, light, atmospheric humidity) in a greenhouse. […] After spraying, the pots with the test plants are kept in a greenhouse chamber under controlled conditions (temperature, light, atmospheric humidity) until the test has ended. […] The figures denote: 0% =no damage (like untreated control) […] Active compounds, application rates, test plants and results are shown in the tables below, the terms being used in the tables being as defined below: wheat=wheat cv. “Orestis”, barley=barley cv. “Coronar” a.i.=active ingredient=active compound/safener

barley cv. “Coronar” = test: Post-emergence test/greenhouse, damage to barley; assay type: in vivo
Protocol: as §1

maize cv. “Pioneer” = test: Post-emergence test/greenhouse, damage to maize; assay type: in vivo; conditions: Table A3
Protocol: (§2) The active compound or safener components are in each case dissolved in a little solvent and then—if appropriate after addition of an emulsifier—diluted with water to the desired concentration. Preferably, an aqueous spray liquor is prepared using 0.1% of the additive Renex-36. Acetone and N,N-dimethylformamide are used as preferred solvents.
(§3) The test plants are grown under controlled conditions (temperature, light, atmospheric humidity) in a greenhouse. The test plants are sprayed when they have reached a height of 5-15 cm. The concentration of the spray liquor is chosen such that the particular amounts of active compound desired are applied in 500 l of water/ha.
(§4) After spraying, the pots with the test plants are kept in a greenhouse chamber under controlled conditions (temperature, light, atmospheric humidity) until the test has ended. About three weeks after the application, the degree of damage to the crop plants is rated in % damage in comparison to the development of the untreated control.
(§5) 0% =no damage (like untreated control)
(§6) 100% =total destruction/damage
(§7) Active compounds, application rates, test plants and results are shown in the tables below, the terms being used in the tables being as defined below:
maize=maize cv. “Pioneer”
(§8) a.i.=active ingredient=active compound/safener

Chenopodium = test: Post-emergence test/greenhouse, damage to Chenopodium; assay type: in vivo; conditions: Table A3
Protocol: as §2, §3, §4, §5, §6, §7, §8

Amaranthus = test: Post-emergence test/greenhouse, damage to Amaranthus; assay type: in vivo; conditions: Table A3
Protocol: as §2, §3, §4, §5, §6, §7, §8

[2] = Table A1: sown 31 March, application 19 April (20 days), 125 g of a.i./ha
[3] = Table A1: sown 31 March, application 19 April (20 days), 250 g of a.i./ha
[4] = Table A1: sown 31 March, application 19 April (20 days), 500 g of a.i./ha
[5] = Table A2: sown 12 April, application 10 May (4 weeks), 125 g of a.i./ha
[6] = Table A2: sown 12 April, application 10 May (4 weeks), 250 g of a.i./ha
[7] = Table A2: sown 12 April, application 10 May (4 weeks), 500 g of a.i./ha

CN1CCCN(Cc2c(S(C)(=O)=O)ccc(C(=O)C3C(=O)CCCC3=O)c2Cl)C1=O [Example I-11]
logP [1]: logP = 1.73^a)

COc1c(C(=O)c2cnoc2C2CC2)ccc(Cl)c1CN1CCN(C)C1=O [Example I-14]
logP [1]: logP = 2.46^a)

CSc1nn(Cc2cc(C(F)(F)F)ccc2C(=O)C2C(=O)CCCC2=O)c(=O)n1C [Example I-15]
Damage Wheat (in %) (5 days) (wheat cv. “Orestis”; [2]): 30%
Damage Wheat (in %) (20 days) (wheat cv. “Orestis”; [2]): 20%
Damage Wheat (in %) (5 days) (wheat cv. “Orestis”; [3]): 40%
Damage Wheat (in %) (20 days) (wheat cv. “Orestis”; [3]): 20%
Damage Wheat (in %) (5 days) (wheat cv. “Orestis”; [4]): 40%
Damage Wheat (in %) (20 days) (wheat cv. “Orestis”; [4]): 30%
Damage Wheat (in %) (5 days) (wheat cv. “Orestis”; [5]): 20%
Damage Wheat (in %) (20 days) (wheat cv. “Orestis”; [5]): 30%
Damage Wheat (in %) (5 days) (wheat cv. “Orestis”; [6]): 35%
Damage Wheat (in %) (20 days) (wheat cv. “Orestis”; [6]): 40%
Damage Wheat (in %) (5 days) (wheat cv. “Orestis”; [7]): 35%
Damage Wheat (in %) (20 days) (wheat cv. “Orestis”; [7]): 50%
Damage Barley (in %) (5 days) (barley cv. “Coronar”; [2]): 40%
Damage Barley (in %) (20 days) (barley cv. “Coronar”; [2]): 10%
Damage Barley (in %) (5 days) (barley cv. “Coronar”; [3]): 50%
Damage Barley (in %) (20 days) (barley cv. “Coronar”; [3]): 15%
Damage Barley (in %) (5 days) (barley cv. “Coronar”; [4]): 50%
Damage Barley (in %) (20 days) (barley cv. “Coronar”; [4]): 20%
Damage Barley (in %) (5 days) (barley cv. “Coronar”; [5]): 35%
Damage Barley (in %) (20 days) (barley cv. “Coronar”; [5]): 25%
Damage Barley (in %) (5 days) (barley cv. “Coronar”; [6]): 35%
Damage Barley (in %) (20 days) (barley cv. “Coronar”; [6]): 30%
Damage Barley (in %) (5 days) (barley cv. “Coronar”; [7]): 35%
Damage Barley (in %) (20 days) (barley cv. “Coronar”; [7]): 50%
logP [1]: logP = 2.59^a)

CCN1CCCN(Cc2c(S(C)(=O)=O)ccc(C(=O)C3C(=O)CCCC3=O)c2Cl)C1=O [Example I-12]
logP [1]: logP = 1.96^a)

COc1nn(Cc2cc(C(F)(F)F)ccc2C(=O)C2C(=O)CCCC2=O)c(=O)n1C [Example I-5]
Damage Maize (in %) (maize cv. “Pioneer”; 30 g of a.i./ha): 30%
Damage Maize (in %) (maize cv. “Pioneer”; 60 g of a.i./ha): 60%
Damage Maize (in %) (maize cv. “Pioneer”; 125 g of a.i./ha): 70%
Damage Chenopodium (in %) (Chenopodium; 30 g of a.i./ha): 100%
Damage Chenopodium (in %) (Chenopodium; 60 g of a.i./ha): 100%
Damage Chenopodium (in %) (Chenopodium; 125 g of a.i./ha): 100%
Damage Amaranthus (in %) (Amaranthus; 30 g of a.i./ha): 100%
Damage Amaranthus (in %) (Amaranthus; 60 g of a.i./ha): 100%
Damage Amaranthus (in %) (Amaranthus; 125 g of a.i./ha): 100%
logP [1]: logP = 2.35^a)
